Patent US10934274B2, “Quinoline derivatives as TAM RTK inhibitors” (Qurient Co., Ltd., priority 2015, dated 2021)

Tests used:
[1] = tested on: Axl phosphorylation in transiently transfected HEK293T cells; test: Cellular Axl phosphorylation assay; assay type: cell-based; conditions: Homo sapiens, HEK-293T; HEK293T cells transfected with Axl, 1 hour compound treatment, Phospho-Axl vs Total-Axl
Outline: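 HEK293T cells transiently transfected with Axl (empty pcDNA_DEST_40 vector as minimum control) were treated with compound in DMSO for 1 h, then lysed. Total and phospho-Axl in lysates were measured by Mesoscale electrochemiluminescence immunoassay. IC50 was taken relative to the DMSO vehicle and empty-vector controls.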

Mer = target: T1, Mer (Homo sapiens, UniProt Q12866); test: LanthaScreen Eu kinase binding assay, Mer; conditions: Tracer 236
T1 construct: purchased Life Technologies
T1 sequence (Q12866 21-999): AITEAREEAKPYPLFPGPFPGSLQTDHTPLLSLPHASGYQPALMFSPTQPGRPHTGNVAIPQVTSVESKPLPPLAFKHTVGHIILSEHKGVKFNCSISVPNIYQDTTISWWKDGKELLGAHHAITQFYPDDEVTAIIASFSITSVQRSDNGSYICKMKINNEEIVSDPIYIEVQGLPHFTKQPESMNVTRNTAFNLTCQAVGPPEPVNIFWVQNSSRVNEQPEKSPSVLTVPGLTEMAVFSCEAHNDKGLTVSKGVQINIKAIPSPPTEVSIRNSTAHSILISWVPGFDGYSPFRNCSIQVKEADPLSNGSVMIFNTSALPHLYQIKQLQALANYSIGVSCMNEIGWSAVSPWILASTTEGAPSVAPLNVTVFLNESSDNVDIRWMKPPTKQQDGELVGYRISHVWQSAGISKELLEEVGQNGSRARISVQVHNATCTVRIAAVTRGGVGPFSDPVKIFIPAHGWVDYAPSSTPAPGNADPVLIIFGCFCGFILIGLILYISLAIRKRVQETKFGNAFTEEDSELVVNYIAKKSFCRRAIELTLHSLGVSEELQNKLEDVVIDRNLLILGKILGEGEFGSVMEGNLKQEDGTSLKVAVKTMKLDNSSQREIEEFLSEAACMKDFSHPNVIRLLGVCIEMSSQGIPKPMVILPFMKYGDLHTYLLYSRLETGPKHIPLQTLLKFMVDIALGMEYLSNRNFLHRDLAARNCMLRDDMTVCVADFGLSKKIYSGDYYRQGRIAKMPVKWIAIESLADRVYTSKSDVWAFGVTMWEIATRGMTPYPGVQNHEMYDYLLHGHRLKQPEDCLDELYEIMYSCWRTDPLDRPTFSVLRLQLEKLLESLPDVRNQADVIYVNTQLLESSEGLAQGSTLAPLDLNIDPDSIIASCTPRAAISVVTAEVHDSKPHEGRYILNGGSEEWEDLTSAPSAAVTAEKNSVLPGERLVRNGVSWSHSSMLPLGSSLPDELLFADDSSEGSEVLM

Met = target: T2, Met (Homo sapiens, UniProt P08581); test: LanthaScreen Eu kinase binding assay, Met; conditions: Tracer 236, read-out: cMet kinase binding activity (Kd)
T2 construct: purchased Life Technologies
T2 sequence (P08581 25-1390): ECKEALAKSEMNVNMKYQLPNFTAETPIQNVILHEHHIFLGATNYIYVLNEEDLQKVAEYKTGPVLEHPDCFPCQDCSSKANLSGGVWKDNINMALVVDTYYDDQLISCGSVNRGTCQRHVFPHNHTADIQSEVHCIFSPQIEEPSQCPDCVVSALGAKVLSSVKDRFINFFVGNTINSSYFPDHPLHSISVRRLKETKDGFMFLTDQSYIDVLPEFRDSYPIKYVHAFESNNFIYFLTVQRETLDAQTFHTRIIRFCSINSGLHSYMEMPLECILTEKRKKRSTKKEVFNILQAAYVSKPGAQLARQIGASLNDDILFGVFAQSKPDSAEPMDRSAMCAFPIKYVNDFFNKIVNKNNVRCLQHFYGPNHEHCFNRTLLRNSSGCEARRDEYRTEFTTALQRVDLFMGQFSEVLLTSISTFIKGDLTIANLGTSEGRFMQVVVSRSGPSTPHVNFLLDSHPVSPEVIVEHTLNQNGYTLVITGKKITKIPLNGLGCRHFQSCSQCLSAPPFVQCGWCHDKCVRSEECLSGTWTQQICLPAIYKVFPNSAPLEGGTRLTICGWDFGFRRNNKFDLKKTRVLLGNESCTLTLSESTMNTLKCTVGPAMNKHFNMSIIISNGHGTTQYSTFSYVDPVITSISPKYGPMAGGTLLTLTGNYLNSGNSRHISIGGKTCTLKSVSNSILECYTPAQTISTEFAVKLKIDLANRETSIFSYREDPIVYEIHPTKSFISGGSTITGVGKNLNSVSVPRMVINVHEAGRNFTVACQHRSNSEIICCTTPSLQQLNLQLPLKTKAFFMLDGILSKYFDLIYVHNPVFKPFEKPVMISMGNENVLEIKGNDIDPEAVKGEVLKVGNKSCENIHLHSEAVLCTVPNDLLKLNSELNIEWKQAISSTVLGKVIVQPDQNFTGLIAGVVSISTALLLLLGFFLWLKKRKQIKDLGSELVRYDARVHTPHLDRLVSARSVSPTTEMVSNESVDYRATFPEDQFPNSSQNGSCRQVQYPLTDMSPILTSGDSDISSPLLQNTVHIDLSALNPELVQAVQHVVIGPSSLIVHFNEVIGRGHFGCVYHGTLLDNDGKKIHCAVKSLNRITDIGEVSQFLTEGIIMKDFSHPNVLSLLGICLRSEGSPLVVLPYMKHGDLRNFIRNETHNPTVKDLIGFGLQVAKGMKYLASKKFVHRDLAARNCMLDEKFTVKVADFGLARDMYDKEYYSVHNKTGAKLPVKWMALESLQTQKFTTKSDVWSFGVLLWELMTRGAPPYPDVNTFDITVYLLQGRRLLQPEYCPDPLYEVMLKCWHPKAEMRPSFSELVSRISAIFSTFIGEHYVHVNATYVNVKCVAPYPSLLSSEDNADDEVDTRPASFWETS

HCC827/ER cells = test: WST-1 cell viability assay in erlotinib-resistant cells; conditions: compound combined with Erlotinib at constant 1:1 ratio, 3 days, FBS 1%
Protocol: The killed cells were discarded and the remaining cells were cultured in a drug-free medium up to 80% confluence. Subsequently, cells were continuously exposed to increasing drug doses of up to 10 μM over a period of 8 months.
HCC827/ER cells were seeded in a 96-well plate with their respective media containing 10% FBS at 5000 cells/well. After seeding, the HCC827/ER cells were incubated for approximately 24 hours. […] The viability of the HCC827/ER cells was determined by adding WST-1 reagent according to Manufacturer's instructions (DoGenbio co., Ltd) and incubating for four hours. The plates were then read using an absorbance of 440 nm on Tecan Microplate reader (Infinite M200 pro, TECAN). The HCC827/ER cells' viability were calculated relative to vehicle (DMSO) control wells.

| SMILES | Kd (Mer) [nM] | Kd (Met) [nM] | IC50 [1] [nM] | Combination effect of compound and erlotinib on inhibition activity in Erlotinib-resistant cell-line (HCC827/ER cells) |
| --- | --- | --- | --- | --- |
| CCOc1cn(C2CCCC2)nc1C(=O)Nc1ccc(Oc2ccnc3cc(OC)c(OC)cc23)cn1 [Compound 3] | < 100 | < 100 | < 100 | – |
| CCOc1cn(C2CCOC2)nc1C(=O)Nc1ccc(Oc2ccnc3cc(OC)c(OC)cc23)cn1 (stereo not shown) [Compound 76] | < 100 | 100 to 1000 | < 100 | – |
| CCOc1cn(CCC#N)nc1C(=O)Nc1ccc(Oc2ccnc3cc(OC)c(OC)cc23)cn1 [Compound 80] | < 100 | 100 to 1000 | < 100 | – |
| CCOc1cn(C(C)CC#N)nc1C(=O)Nc1ccc(Oc2ccnc3cc(OC)c(OC)cc23)cn1 (stereo not shown) [Compound 81] | < 100 | 100 to 1000 | < 100 | – |
| CCOc1cn(-c2cccnc2)nc1C(=O)Nc1ccc(Oc2ccnc3cc(OC)c(OC)cc23)cc1F [Compound 85] | < 100 | < 100 | < 100 | – |
| CCOc1cn(CCOC(F)F)nc1C(=O)Nc1ccc(Oc2ccnc3cc(OC)c(OC)cc23)cn1 [Compound 86] | < 100 | < 100 | < 100 | – |
| CCOc1cn(-c2ncc(N)cn2)nc1C(=O)Nc1ccc(Oc2ccnc3cc(OC)c(OC)cc23)cn1 [Compound 93] | < 100 | < 100 | < 100 | – |

More lines, main results first:

| Kd (Mer) [nM] | Kd (Met) [nM] | SMILES | IC50 [1] [nM] | Combination effect of compound and erlotinib on inhibition activity in Erlotinib-resistant cell-line (HCC827/ER cells) |
| --- | --- | --- | --- | --- |
| < 100 | < 100 | CCOc1cn(-c2ccccn2)nc1C(=O)Nc1ccc(Oc2ccnc3cc(OC)c(OC)cc23)cn1 [Compound 4] | < 100 | – |
| < 100 | < 100 | CCOc1cn(-c2cccnn2)nc1C(=O)Nc1ccc(Oc2ccnc3cc(OC)c(OC)cc23)cn1 [Compound 5] | < 100 | – |
| < 100 | < 100 | CCOc1cn(-c2cnccc2C)nc1C(=O)Nc1ccc(Oc2ccnc3cc(OC)c(OC)cc23)cn1 [Compound 79] | < 100 | synergistic effect |
| < 100 | < 100 | CCOc1cn(-c2ccc(F)cc2C)nc1C(=O)Nc1ccc(Oc2ccnc3cc(OC)c(OC)cc23)c(Cl)c1 [Compound 82] | < 100 | – |
| < 100 | < 100 | CCOc1cn(-c2ccc(Cl)cc2C)nc1C(=O)Nc1ccc(Oc2ccnc3cc(OC)c(OC)cc23)cn1 [Compound 87] | < 100 | – |
| < 100 | < 100 | CCOc1cn(-c2ccc(F)cc2)nc1C(=O)Nc1ccc(Oc2ccnc3cc(OC)c(OC)cc23)cn1 [Compound 89] | < 100 | – |
| < 100 | < 100 | CCOc1cn(-c2c(C)cc(OC)cc2C)nc1C(=O)Nc1ccc(Oc2ccnc3cc(OC)c(OC)cc23)cn1 [Compound 92] | < 100 | – |
